Test results as given in PubChem BioAssay (NCI).
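Cells were grown in 96-well plates and exposed to each compound for 48 hours at five concentrations; endpoints were interpolated linearly between bracketing concentrations, or set to the highest concentration if not reached. The concentration for 50% growth inhibition is given as GI50. The concentration for full growth arrest is given as TGI.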

How the values were obtained:
Assay in all cases: NCI tumour cell line growth inhibition, 48 h
NCI-H460 lung = system: NCI-H460 lung
NCI-H522 lung = system: NCI-H522 lung
NCI/ADR-RES ovarian = system: NCI/ADR-RES ovarian
OVCAR-3 ovarian = system: OVCAR-3 ovarian
OVCAR-4 ovarian = system: OVCAR-4 ovarian
OVCAR-5 ovarian = system: OVCAR-5 ovarian
OVCAR-8 ovarian = system: OVCAR-8 ovarian
PC-3 prostate = system: PC-3 prostate
RPMI-8226 leukemia = system: RPMI-8226 leukemia
RXF 393 renal = system: RXF 393 renal
SF-268 CNS = system: SF-268 CNS
SF-295 CNS = system: SF-295 CNS
SF-539 CNS = system: SF-539 CNS
SK-MEL-2 melanoma = system: SK-MEL-2 melanoma
SK-MEL-28 melanoma = system: SK-MEL-28 melanoma
SK-MEL-5 melanoma = system: SK-MEL-5 melanoma
SK-OV-3 ovarian = system: SK-OV-3 ovarian
SN12C renal = system: SN12C renal
SNB-19 CNS = system: SNB-19 CNS
SNB-75 CNS = system: SNB-75 CNS
SR leukemia = system: SR leukemia
SW-620 colon = system: SW-620 colon
T-47D breast = system: T-47D breast
TK-10 renal = system: TK-10 renal
U251 CNS = system: U251 CNS
UACC-257 melanoma = system: UACC-257 melanoma
UACC-62 melanoma = system: UACC-62 melanoma
UO-31 renal = system: UO-31 renal

`NS(=O)(=O)c1ccc(N=Nc2c(O)n(CC(=O)Nc3ccccc3)c3ccccc23)cc1` gave a GI50 (NCI-H460 lung) of 544 nM, a TGI (NCI-H460 lung) of 3070 nM and a GI50 (NCI-H522 lung) of 589 nM. It also gave a TGI (NCI-H522 lung) of 3800 nM, a GI50 (NCI/ADR-RES ovarian) of over 100000 nM and a TGI (NCI/ADR-RES ovarian) of over 100000 nM. It also gave a GI50 (OVCAR-3 ovarian) of 873 nM, a TGI (OVCAR-3 ovarian) of 16000 nM and a GI50 (OVCAR-4 ovarian) of 930 nM. It also gave a TGI (OVCAR-4 ovarian) of 69700 nM, a GI50 (OVCAR-5 ovarian) of 3520 nM and a TGI (OVCAR-5 ovarian) of 26100 nM. For the same compound, the GI50 (OVCAR-8 ovarian) was 646 nM, the TGI (OVCAR-8 ovarian) was 3160 nM and the GI50 (PC-3 prostate) was 1610 nM. The TGI (PC-3 prostate) was 10900 nM, the GI50 (RPMI-8226 leukemia) was 1130 nM and the TGI (RPMI-8226 leukemia) was over 100000 nM. The GI50 (RXF 393 renal) was 1360 nM, the TGI (RXF 393 renal) was 5060 nM and the GI50 (SF-268 CNS) was 3590 nM. It also gave a TGI (SF-268 CNS) of over 100000 nM, a GI50 (SF-295 CNS) of 1230 nM and a TGI (SF-295 CNS) of 5160 nM. It also gave a GI50 (SF-539 CNS) of 538 nM, a TGI (SF-539 CNS) of 2030 nM and a GI50 (SK-MEL-2 melanoma) of 2250 nM. It also gave a TGI (SK-MEL-2 melanoma) of 6900 nM, a GI50 (SK-MEL-28 melanoma) of 932 nM and a TGI (SK-MEL-28 melanoma) of 6060 nM. The GI50 (SK-MEL-5 melanoma) was 1000 nM, the TGI (SK-MEL-5 melanoma) was 5500 nM and the GI50 (SK-OV-3 ovarian) was 3110 nM. The TGI (SK-OV-3 ovarian) was 10200 nM, the GI50 (SN12C renal) was 1140 nM and the TGI (SN12C renal) was 6050 nM. It also gave a GI50 (SNB-19 CNS) of 1670 nM, a TGI (SNB-19 CNS) of 15100 nM and a GI50 (SNB-75 CNS) of 1940 nM. It also gave a TGI (SNB-75 CNS) of 8220 nM, a GI50 (SR leukemia) of 194 nM and a TGI (SR leukemia) of over 100000 nM. For the same compound, the GI50 (SW-620 colon) was 402 nM, the TGI (SW-620 colon) was 2260 nM and the GI50 (T-47D breast) was 1890 nM. For the same compound, the TGI (T-47D breast) was 21400 nM, the GI50 (TK-10 renal) was 2640 nM and the TGI (TK-10 renal) was 25800 nM. For the same compound, the GI50 (U251 CNS) was 1170 nM, the TGI (U251 CNS) was 3880 nM and the GI50 (UACC-257 melanoma) was 2020 nM. For the same compound, the TGI (UACC-257 melanoma) was 20300 nM, the GI50 (UACC-62 melanoma) was 520 nM and the TGI (UACC-62 melanoma) was 2810 nM. The GI50 (UO-31 renal) was 895 nM and the TGI (UO-31 renal) was 6950 nM.
